{
  "source": "patent US5158970A",
  "about": "“Proline derivatives” (Kabushiki Kaisha Yakult Honsha, priority 1989, dated 1992)",
  "key": {"prolylendopeptidase": {"biological_target": "prolylendopeptidase (Elizabethkingia meningoseptica, UniProt P27028)", "sequence (P27028 21-705)": "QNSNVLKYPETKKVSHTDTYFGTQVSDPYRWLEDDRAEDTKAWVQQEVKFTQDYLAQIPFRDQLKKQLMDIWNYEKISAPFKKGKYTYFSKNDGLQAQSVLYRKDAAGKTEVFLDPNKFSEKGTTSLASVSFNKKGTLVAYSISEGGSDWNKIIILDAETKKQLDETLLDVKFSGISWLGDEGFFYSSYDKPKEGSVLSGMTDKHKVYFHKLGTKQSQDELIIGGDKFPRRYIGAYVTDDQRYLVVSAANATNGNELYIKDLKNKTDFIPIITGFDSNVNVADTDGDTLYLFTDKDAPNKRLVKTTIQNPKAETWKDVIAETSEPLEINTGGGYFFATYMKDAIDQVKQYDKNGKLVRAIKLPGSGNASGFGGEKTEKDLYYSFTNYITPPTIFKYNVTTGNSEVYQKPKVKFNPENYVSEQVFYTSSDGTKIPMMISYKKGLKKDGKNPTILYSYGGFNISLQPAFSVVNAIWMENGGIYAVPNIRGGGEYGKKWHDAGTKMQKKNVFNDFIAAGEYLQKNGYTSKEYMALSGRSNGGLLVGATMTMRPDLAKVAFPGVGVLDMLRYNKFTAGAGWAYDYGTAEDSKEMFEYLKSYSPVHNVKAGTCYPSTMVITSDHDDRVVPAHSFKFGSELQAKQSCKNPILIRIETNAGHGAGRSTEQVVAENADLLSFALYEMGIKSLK", "assay": "biochemical", "type": "biochemical", "settings": "substrate 2.5 mM Z-glycyl-proline-β-naphthylamide; pH 7.0; 35° C. for 10 minutes; read-out: inhibition constant (Ki)", "protocol": "The compounds of the invention obtained in the foregoing Examples were assayed for their prolylendopeptidase inhibition activity. This assay for prolylendopeptidase inhibition was carried out in accordance with the method of Yoshimoto and Tsuru (Yoshimoto, T. and Tsuru, D., Agr. Biol. Chem. Vol. 42, 2417, 1978). The corresponding number of test tubes to the number of the compounds to be tested were prepared and 2.5 mM Z-glycyl-proline-β-naphthylamide (0.25 ml), 0.1 M phosphate buffer (pH 7.0, 0.99 ml) and a solution of one of the peptides of the invention (0.1 ml) were placed in each test tube and warmed at 37° C. for 3 minutes. 0.1 ml of solution of propylendopeptidase (0.2 unit/ml) was added to each test tube. After reaction at 35° C. for 10 minutes, 1 M acetate buffer containing Triton X-100 (pH 4.0) was added to a final concentration of 10% and after the mixture was left to stand at room temperature for 15 minutes the absorbance (a) at 410 nm was measured.\nThe above-mentioned procedure was followed in the same manner but using buffers only in place of the solution of each compound of the invention, and the absorbance (b) was measured."}, "[1]": {"test_system": "scopolamine-induced amnesia", "assay": "step-down passive avoidance test, anti-amnestic activity on scopolamine-induced amnesia", "type": "in vivo, male rats of Wister strain", "settings": "scopolamine 0.5 mg/kg i.p., retention 24 hours after acquisition, relative to scopolamine-treated group", "source_text": "A step-down passive avoidance test on rats was used as the method of assay for anti-amnestic activity to estimate the preventive effect of prolylendopeptidase inhibitors on scopolamine-induced amnesia. This method of assay involved application of electric shocks to animals upon their stepping down on a grid floor to see whether they have learned that such shocks can be avoided by staying on a platform. A passive avoidance test chamber used in this experiment was comprised of an electrifiable grid floor (20 cm in length and 22 cm in width) and a platform (20 cm in length, 15 cm in width and 5 cm in height) placed at the right back corner thereof.\n5-Weeks-old male rats of Wister strain weighing 100-150 g (purchased from Japan Clea Co., Ltd.) were used in the test.\nEach test compound used in the doses indicated in Tables 2-3 was dissolved or suspended in 4% gum arabic-containing distilled water (1 ml) and administered p.o. one hour before the commencement of acquisition trial. In addition, scopolamine hydrobromide dissolved in saline (0.5 ml) was intraperitoneally administered in a dose of 0.5 mg/kg 30 minutes before the acquisition trial to prepare experimental animal models of amnesia.\nIn the acquisition trial, the rat was placed on the platform in the test chamber and, when the animal stepped down on the grid floor, the electric current of 5.0 mA was immediately sent to the grid floor continuously until the animal went up on the platform If the rat having gone up on the platform stayed there for more than 30 seconds, the animal was regarded to have learned the situation and taken out of the test chamber. A total time of measurement in the acquisition trial was limited to 300 seconds as maximum, and the time elapsing until the rat learned the situation was measured. In order to avoid any significant difference in the rats, those which took more than 300 seconds for the learning were excluded from the experiment.\nThe retention trial was carried out 24 hours after the acquisition trial. In this trial, the rat was placed again on the platform in the test chamber, the time elapsing until the animal stepped down onto the grid floor (the step-down latency) was measured.\nIn each of these tables they are indicated as relative step-down latency, shown by each test compound-treated group in the retention trial, to step-down latency for scopolamine-treated group (i.e. test compound-treated group's step-down latency/scopolamine-treated group's step-down latency)."}, "[2]": {"settings": "prior art; cited from earlier work"}, "proline endopeptidase": {"test_system": "proline endopeptidase", "settings": "prior art; cited from earlier work"}, "[3]": {"settings": "Table 2, 5 mg/kg p.o., **p < 0.01 (Mann-Whitney)"}},
  "note": "Residues, ends and D or L forms follow the SMILES beside them. *: point of attachment. Cbz = O=C(OCc1ccccc1)*",
  "data": [
    {"smiles": "CCOC(OCC)[C@@H]1CCCN1C(=O)[C@@H]1CCCN1C(=O)OCc1ccccc1", "note": "[Example 8, N-benzyloxycarbonyl-L-prolyl-L-prolinal diethyl acetal]", "values": [
      {"measurement": "Ki", "setting": "prolylendopeptidase", "result": 2.2, "unit": "µM"},
      {"measurement": "Relative step-down latency in retention trial (mean ± S.E.)", "setting": "[1]; Table 2, 1 mg/kg p.o.", "result": "2.0 ± 0.5"},
      {"measurement": "Relative step-down latency in retention trial (mean ± S.E.)", "setting": "[1]; [3]", "result": "0.9 ± 0.2"},
      {"measurement": "Relative step-down latency in retention trial (mean ± S.E.)", "setting": "[1]; Table 2, 25 mg/kg p.o.", "result": "1.2 ± 0.3"},
      {"measurement": "Relative step-down latency in retention trial (mean ± S.E.)", "setting": "[1]; Table 2, 50 mg/kg p.o.", "result": "0.7 ± 0.3"},
      {"measurement": "Relative step-down latency in retention trial (mean ± S.E.)", "setting": "[1]; Table 2, 100 mg/kg p.o.", "result": "0.6 ± 0.3"}
    ]},
    {"smiles": "CCOC(OCC)[C@@H]1CCCN1C(=O)[C@@H]1CCCN1C(=O)CCC(=O)O", "note": "[Example 12, N-succinyl-L-prolyl-L-prolinal diethyl acetal]", "values": [
      {"measurement": "Ki", "setting": "prolylendopeptidase", "result": 370, "unit": "µM"}
    ]},
    {"smiles": "CCOC(OCC)[C@@H]1CCCN1C(=O)CN(C)C(=O)CCC(=O)O", "note": "[Example 14, N-succinyl-sarcosyl-L-prolinal diethyl acetal]", "values": [
      {"measurement": "Ki", "setting": "prolylendopeptidase", "result": 1000, "unit": "µM"}
    ]},
    {"smiles": "CCOC(OCC)[C@@H]1CCCN1C(=O)[C@@H]1CCC(=O)N1C(=O)CCC(=O)O", "note": "[Example 16, N-succinyl-L-pyroglutamyl-L-prolinal diethyl acetal]", "values": [
      {"measurement": "Ki", "setting": "prolylendopeptidase", "result": 1000, "unit": "µM"}
    ]},
    {"smiles": "O=C[C@@H]1CCCN1C(=O)[C@@H]1CCCN1C(=O)OCc1ccccc1", "note": "[ZPP, Benzyloxycarbonyl-L-prolyl-L-prolinal] (Cbz-Pro-Pro-aldehyde)", "values": [
      {"measurement": "anti-amnestic action", "setting": "[2]", "result": "anti-amnestic action"},
      {"measurement": "inhibitory activity to proline endopeptidase", "setting": "proline endopeptidase", "result": "inhibitory activity to proline endopeptidase"},
      {"measurement": "Relative step-down latency in retention trial (mean ± S.E.)", "setting": "[1]; Table 2, 1 mg/kg p.o.", "result": "2.8 ± 1.3"},
      {"measurement": "Relative step-down latency in retention trial (mean ± S.E.)", "setting": "[1]; [3]", "result": "8.5 ± 1.6"},
      {"measurement": "Relative step-down latency in retention trial (mean ± S.E.)", "setting": "[1]; Table 2, 25 mg/kg p.o.", "result": "1.4 ± 0.8"},
      {"measurement": "Relative step-down latency in retention trial (mean ± S.E.)", "setting": "[1]; Table 2, 50 mg/kg p.o.", "result": "0.5 ± 0.1"},
      {"measurement": "Relative step-down latency in retention trial (mean ± S.E.)", "setting": "[1]; Table 2, 100 mg/kg p.o.", "result": "1.3 ± 0.8"}
    ]},
    {"smiles": "COc1ccc(C(=O)N2CCCC2=O)cc1", "note": "[aniracetam]", "values": [
      {"measurement": "Relative step-down latency in retention trial (mean ± S.E.)", "setting": "[1]; Table 3, 12.5 mg/kg p.o.", "result": "1.1 ± 0.4"},
      {"measurement": "Relative step-down latency in retention trial (mean ± S.E.)", "setting": "[1]; Table 3, 25 mg/kg p.o.", "result": "1.6 ± 0.6"},
      {"measurement": "Relative step-down latency in retention trial (mean ± S.E.)", "setting": "[1]; Table 3, 50 mg/kg p.o., *p < 0.05 (Mann-Whitney)", "result": "2.3 ± 0.6"},
      {"measurement": "Relative step-down latency in retention trial (mean ± S.E.)", "setting": "[1]; Table 3, 100 mg/kg p.o.", "result": "0.7 ± 0.3"}
    ]}
  ]
}
